From patent US20240368168A1, “SARM1 ENZYME ACTIVITY INHIBITOR AND APPLICATION THEREOF” (ARTIVILA BIOPHARMA, priority 2021, published 2024)

Experiments:
[1] = target: T1, SARM1 protein in iSARM1 (HEK293) cells (Homo sapiens, UniProt Q6SZW1); experiment: Inhibitory activity in inducible SARM1 overexpressing cell line, intracellular cADPR level; assay type: cell-based; conditions: activator CZ-48 100 μM, cADPR content
T1 construct: The full-length SARM1 was synthesized into the pUC57 plasmid by WZ Biosciences Inc., and PCR was performed using pUC57-SARM1 as a DNA template
T1 sequence (Q6SZW1 28-724): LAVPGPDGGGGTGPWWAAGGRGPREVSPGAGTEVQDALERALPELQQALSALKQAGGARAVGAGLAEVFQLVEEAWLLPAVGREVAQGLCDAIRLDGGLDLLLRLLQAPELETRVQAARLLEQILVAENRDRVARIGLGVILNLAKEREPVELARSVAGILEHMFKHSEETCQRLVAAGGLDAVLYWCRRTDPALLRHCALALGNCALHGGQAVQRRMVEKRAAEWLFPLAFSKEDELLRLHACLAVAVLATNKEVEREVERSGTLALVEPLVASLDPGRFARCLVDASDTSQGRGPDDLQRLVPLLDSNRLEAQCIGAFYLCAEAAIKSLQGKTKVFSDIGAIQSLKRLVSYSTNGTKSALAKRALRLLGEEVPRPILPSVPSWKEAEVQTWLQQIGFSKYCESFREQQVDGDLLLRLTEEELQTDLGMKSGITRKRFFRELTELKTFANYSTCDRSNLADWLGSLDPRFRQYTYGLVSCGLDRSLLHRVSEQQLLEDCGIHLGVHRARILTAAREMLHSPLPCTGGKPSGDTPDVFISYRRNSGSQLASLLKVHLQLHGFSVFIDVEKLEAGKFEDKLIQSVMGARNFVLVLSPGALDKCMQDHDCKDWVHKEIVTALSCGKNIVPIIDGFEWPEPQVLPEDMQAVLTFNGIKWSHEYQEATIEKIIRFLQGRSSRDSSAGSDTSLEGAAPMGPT
Experimental: In this example, the gene sequence of SARM1 was amplified using PCR, and constructed into pInducer20-neo plasmid. pInducer20-SARM1 virus was packaged in a liposome and infected HEK293 to obtain an inducible SARM1-overexpressing cell line, which was labeled as iSARM1 (HEK293). The specific preparation was as follows:
First, a 96-well culture plate was treated with 0.05 mg/ml polylysine for 5 minutes and washed once with PBS. 3×10^4 iSARM1 (HEK293) cells were plated into the 96-well plate and cultured overnight in a 37° C. and 5% incubator. The next day, the cells were added with an inhibitor with a final concentration of 50 μM, incubated in the incubator for 1.5 hours, added with activator CZ-48 with a final concentration of 100 μM, and incubated for 16 hours. Meanwhile, the cells without adding CZ-48 or without adding drug were set as control group. Finally, the intracellular cADPR level was detected to represent the activity of SARM1, and the inhibition rate of SARM1 in cells by 50 μM inhibitor was calculated.
The cADPR measurement was performed as follows. First, the cells were washed once with PBS, and added with 150 μl of pre-cooled 0.6M perchloric acid (PCA) to quickly lyse the cells and precipitate the protein. The PCA supernatant was transferred to a 1.5 ml centrifuge tube. The protein in the culture medium was dissolved again with 100 μl of 1M NaOH. The supernatant was added with 0.5 ml of organic reagent mixture (trioctylamine:chloroform=1:3) to extract PCA from water. After sufficient shaking, the mixture was centrifuged at 12,000 rpm for 10 minutes. The solution was divided into 3 layers: the upper aqueous phase, containing the small molecules of interest; the lower organic phase, in which PCA was dissolved; and a thin protein layer between the upper and lower layers. The upper layer was transferred to a new centrifuge tube, added with 1M Tris-Mg at a ratio of 1:100 (1M Tris (pH 8.0): 1M MgCl2=9:1), added with NADase at a ratio of 1:250, and treated at 37° C. overnight to remove NAD^+ from the mixed solution. After the treatment was completed, the mixed solution was filtered using Millipore's 10 K 96-well filter plate to remove NADase.
The cADPR content in the solution was determined through Cycling analysis method. The specific steps were as follows: 20 μl of the sample to be tested or the cADPR standard was taken and added to a 96-well opaque white plate. Preparation of reaction solution: 9.6 ml of PBS (pH 7.4), 200 μl of ethanol, 150 μl of 1 mg/ml AD, 10 μl of 10 mM FMN, 5 μl of 18 mg/ml Diaphorase, 10 μl of 10 mM Resazurin, and 100 μl of 1M Nam. Half of the reaction solution was divided and added with 0.2 μg/ml cyclase. The reaction solution without adding cyclase was used as control experiment. Each sample was divided into two groups, 3 replicates in each group. The reaction solutions containing or not containing cyclase were added to each group to perform the reaction. The reaction kinetic curve within 30 minutes was recorded (Ex:Em=544/599). The average slope of the reaction was calculated. Conversion was performed according to cADPR standard to obtain the accurate cADPR content. A curve of intracellular cADPR content vs corresponding inhibitor concentration was plotted. The half inhibitory concentration of the inhibitor was calculated.

[2] = target: T2, dN-SARM1 protein (Homo sapiens, UniProt Q6SZW1); experiment: In vitro biochemical assay for inhibiting SARM1 enzymatic activity (IC50), PC6 fluorescence method; conditions: 50 μM NAD, 50 μM PC6, 50 μM NMN activator
T2 construct: the N-terminal mitochondrial localization signal peptide of SARM1 was removed
T2 sequence (Q6SZW1 28-724): T1 sequence (Q6SZW1 28-724)
Summary of the method: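 Activity read as the rate of PC6 fluorescence change (390 nm excitation, 520 nm emission) over a 30 min room-temperature reaction containing final 50 μM each of NAD, PC6 and NMN activator. Enzyme, 0.05 μg/ml dN-SARM1 in 50 mM Tris-HCl pH 7.5, first incubated 10 min with compound diluted serially from 200 μM; IC50 calculated.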

Compound	EC50 [1] [nM]	IC50 [2] [nM]
C=CCN(C(=O)OC(C)(C)C)c1ccc2ncc(-c3cccc(NC(=O)C4CCOCC4)c3)n2c1 [Compound 213, tert-butyl allyl(3-(3-(tetrahydro-2H-pyran-4-carboxamido)phenyl)imidazo[1,2-a]pyridin-6-yl)carbamate]	< 1000	1000 to 10000
CC(C)(C)OC(=O)N(C/C=C/c1cccc(N)c1)c1ccc2ncc(-c3cccc(NC(=O)C4CCOCC4)c3)n2c1 [Compound 219]	1000 to 10000	1000 to 10000
Nc1cccc(/C=C/CNc2ccc3ncc(-c4ccccc4)n3c2)c1 [Compound 220]	1000 to 10000	1000 to 10000
CC(C)(C)OC(=O)N(C/C=C/c1cccc(NC(=O)C2CCOCC2)c1)c1ccc2ncc(-c3ccccc3)n2c1 [Compound 221]	< 1000	1000 to 10000
O=C(Nc1cccc(-c2cnc3ccc(N4CCOCC4)cn23)c1)[C@H]1C[C@H](N2CCCCC2)C1 [Compound 227]	< 1000	1000 to 10000
O=C(Nc1cccc(-c2cnc3ccc(N4CCOCC4)cn23)c1)[C@H]1C[C@@H](N2CCOCC2)C1 [Compound 230]	1000 to 10000	1000 to 10000
O=C(Nc1cccc(-c2cnc3ccc(N4CCOCC4)cn23)c1)[C@H]1C[C@H](N2CCOCC2)C1 [Compound 231]	1000 to 10000	1000 to 10000
O=C(Cc1ccc(Cl)cc1)Nc1cccn2c(-c3ccncc3)cnc12 [Compound 234]	1000 to 10000	1000 to 10000
CNc1ccc2ncc(-c3cccc(NC(=O)C4CCCO4)c3)n2c1 (stereo not shown) [Compound 236]	1000 to 10000	< 1000
CN(C(=O)OC(C)(C)C)c1ccc2ncc(-c3cccc(NC(=O)COC4CCOC4)c3)n2c1 (stereo not shown) [Compound 237]	< 1000	< 1000
CN(C(=O)OC(C)(C)C)c1ccc2ncc(-c3cccc(NC(=O)[C@@H]4CCOC4)c3)n2c1 [Compound 238]	< 1000	< 1000
CN(C(=O)OC(C)(C)C)c1ccc2ncc(-c3cccc(NC(=O)[C@H]4CCOC4)c3)n2c1 [Compound 239]	< 1000	< 1000
CC(C)(C)OC(=O)Nc1ccc2ncc(-c3cccc(NC(=O)COCCOCc4ccccc4)c3)n2c1 [Compound 240]	< 1000	< 1000
CNc1ccc2ncc(-c3cccc(NC(=O)COCCOCc4ccccc4)c3)n2c1 [Compound 241]	< 1000	< 1000
CN(C(=O)OC(C)(C)C)c1ccc2ncc(-c3cccc(NC(=O)COCCOCc4ccccc4)c3)n2c1 [Compound 244]	< 1000	1000 to 10000
CN(C(=O)OC(C)(C)C)c1ccc2ncc(-c3cccc(NC(=O)C4CCCO4)c3)n2c1 (stereo not shown) [Compound 245]	< 1000	1000 to 10000
CN(C(=O)OC(C)(C)C)c1ccc2ncc(-c3cccc(C(=O)NC[C@@H]4CCO4)c3)n2c1 [Compound 246]	1000 to 10000	1000 to 10000
CC(C)OCCOCC(=O)Nc1cccc(-c2cnc3ccc(N(C)C(=O)OC(C)(C)C)cn23)c1 [Compound 247]	< 1000	1000 to 10000

Compound	EC50 [1] [nM]	IC50 [2] [nM]
CN(C(=O)OC(C)(C)C)c1ccc2ncc(-c3cccc(NC(=O)COCc4ccccc4)c3)n2c1 [Compound 248]	< 1000	1000 to 10000
CN(C(=O)OC(C)(C)C)c1ccc2ncc(-c3cccc(NC(=O)c4ccccc4)c3)n2c1 [Compound 249]	< 1000	1000 to 10000
CNc1ccc2ncc(-c3cccc(NC(=O)c4ccccc4)c3)n2c1 [Compound 251]	1000 to 10000	1000 to 10000
CNc1ccc2ncc(-c3cccc(CNC(=O)c4ccccc4)c3)n2c1 [Compound 253]	1000 to 10000	1000 to 10000
CN(C(=O)OC(C)(C)C)c1ccc2ncc(-c3cccc(CNC(=O)OC(C)(C)C)c3)n2c1 [Compound 254]	1000 to 10000	< 1000
CNc1ccc2ncc(-c3cccc4[nH]ccc34)n2c1 [Compound 255]	1000 to 10000	< 1000
CN(C(=O)OC(C)(C)C)c1ccc2ncc(-c3cccc4c3CNC4=O)n2c1 [Compound 256]	1000 to 10000	< 1000
CN(C(=O)OC(C)(C)C)c1ccc2ncc(-c3cccc4cn[nH]c34)n2c1 [Compound 259]	1000 to 10000	< 1000
CN(C(=O)OC(C)(C)C)c1ccc2ncc(-c3cccc4c3CC(=O)N4)n2c1 [Compound 260]	1000 to 10000	< 1000
CN(C(=O)OC(C)(C)C)c1ccc2ncc(-c3cccc4ncccc34)n2c1 [Compound 262]	< 1000	< 1000
CN(C(=O)OC(C)(C)C)c1ccc2ncc(-c3cccc(O)c3)n2c1 [Compound 272]	1000 to 10000	1000 to 10000
CNc1ccc2ncc(-c3cccc(C(=O)OC)c3)n2c1 [Compound 273]	1000 to 10000	1000 to 10000
CNc1ccc2ncc(-c3cccc(CN)c3)n2c1 [Compound 274]	1000 to 10000	1000 to 10000
CN(C(=O)OC(C)(C)C)c1ccc2ncc(-c3cccc4[nH]ccc34)n2c1 [Compound 275]	1000 to 10000	1000 to 10000
CNC(=O)c1cccc(-c2cnc3ccc(N(C)C(=O)OC(C)(C)C)cn23)c1 [Compound 276]	1000 to 10000	1000 to 10000
CN(C(=O)OC(C)(C)C)c1ccc2ncc(-c3ccncc3F)n2c1 [Compound 278]	1000 to 10000	1000 to 10000
COC(=O)c1cccc(-c2cnc3ccc(N(C)C(=O)C(C)(C)C)cn23)c1 [Compound 301]	1000 to 10000	< 1000
